Data: patent publication US20250152675A1, “I-TYPE RECOMBINANT COLLAGEN WITH HIGH TRANSDERMAL ABSORBABILITY, AND USE THEREOF” (XI'AN GIANT BIOGENE TECHNOLOLGY CO., LTD, priority 2022, published 2025)
Residues, ends and D or L forms follow the SMILES beside them.

Assay: Transdermal penetration through ex vivo mouse skin in a single-chamber diffusion cell, content by BCA kit
Type: in vitro ADME, Kunming mice
Conditions: collagen peptide 5 mg/ml in 0.9% NaCl, diffusion area 2.0 cm^2, 37.5° C.
Protocol: 1. Preparation of Mouse Skin Ex Vivo 10 Kunming mice of 20 to 22 g with half male and half […] were used in the experiment. After the mice were killed, the hairs on the abdomen were removed. Then the skin on the hair-removed area was peeled off, stripped of fat and tendons, and rinsed repeatedly with distilled water. After being washed, the mouse skins were rinsed with normal saline, then treated with 10% glycerol, and stored at −20° C. for use (use up within 7 days).
Single-chamber diffusion cell: The effective diffusion area of the diffusion cell is 2.0 cm^2, the volume of the receiving cell is 14 ml, the length of the custom-made stirrer is 1.4 cm, and the receiving solution is 0.9% NaCl solution.
The stored mouse skin was taken out, thawed, washed with normal saline, and sandwiched between the receiving chamber and the supplying chamber, with the medicated side facing the supplying chamber and the skin side facing the receiving chamber. The temperature of the water bath system was adjusted to 37.5° C., and the stirring speed was adjusted to 100 rpm/min. 0.9% NaCl solution pre-warmed at 37° C. was added to the receiving chamber and the air bubbles were exhausted, in order to reduce the interference, the inner surface of the mouse skin was firstly contacted with the receiving solution without medication and all the receiving solution was replaced. Then the 27 collagen peptides synthesized were prepared into 5 mg/ml solutions using 0.9% NaCl respectively, which were injected into the supplying chamber and firmly adhere to the mouse skin respectively. After 24 h, part of the receiving solution was absorbed with a syringe as the sample solution to determine the transdermal amount of collagen peptide.
The BCA kit method was used to determine the polypeptide content in the sample solution. […]

Row | Structure (SMILES) | 24h penetration amount [µg]
1 | C[C@H](NC(=O)CNC(=O)[C@@H](NC(=O)[C@H](C)NC(=O)CNC(=O)[C@H](CC(=O)O)NC(=O)[C@H](CC(N)=O)NC(=O)CNC(=O)[C@H](CCCNC(=N)N)NC(=O)[C@H](C)NC(=O)CNC(=O)[C@H](C)NC(=O)[C@@H]1CCCN1C(=O)CNC(=O)[C@@H]1CCCN1C(=O)[C@H](C)NC(=O)CNC(=O)[C@@H]1CCCN1C(=O)[C@H](CCCNC(=N)N)NC(=O)CNC(=O)[C@H](CCCNC(=N)N)NC(=O)[C@H](CCC(=O)O)NC(=O)CN)[C@@H](C)O)C(=O)N[C@@H](C)C(=O)NCC(=O)N1CCC[C@H]1C(=O)N1CCC[C@H]1C(=O)NCC(=O)N1CCC[C@H]1C(=O)N[C@H](C(=O)NCC(=O)N1CCC[C@H]1C(=O)N[C@@H](C)C(=O)NCC(=O)N1CCC[C@H]1C(=O)N1CCC[C@H]1C(=O)O)[C@@H](C)O [compound 6] (H-GERGRPGAPGPAGARGNDGATGAAGPPGPTGPAGPP-OH; N-terminus and C-terminus assumed) | 2233.35
2 | CSCC[C@H](NC(=O)CNC(=O)[C@@H]1CCCN1C(=O)[C@H](CC(C)C)NC(=O)CNC(=O)[C@H](C)NC(=O)[C@@H](NC(=O)CNC(=O)[C@@H]1CCCN1C(=O)[C@H](CC(C)C)NC(=O)CNC(=O)[C@H](CCCNC(=N)N)NC(=O)[C@H](C)NC(=O)CNC(=O)[C@H](CCC(N)=O)NC(=O)[C@@H]1CCCN1C(=O)CNC(=O)[C@@H]1CCCN1C(=O)[C@@H]1CCCN1C(=O)CNC(=O)[C@H](CCCNC(=N)N)NC(=O)[C@H](CCC(=O)O)NC(=O)CN)[C@@H](C)O)C(=O)N[C@@H](CCCCN)C(=O)NCC(=O)N[C@@H](Cc1c[nH]cn1)C(=O)N[C@@H](CCCNC(=N)N)C(=O)NCC(=O)N[C@@H](Cc1ccccc1)C(=O)N[C@@H](CO)C(=O)NCC(=O)N[C@@H](CC(C)C)C(=O)N[C@@H](CC(=O)O)C(=O)NCC(=O)N[C@@H](C)C(=O)N[C@@H](CCCCN)C(=O)O [compound 3] (H-GERGPPGPQGARGLPGTAGLPGMKGHRGFSGLDGAK-OH; N-terminus and C-terminus assumed) | 2224.03
3 | CC(C)[C@H](NC(=O)CNC(=O)[C@H](CCCNC(=N)N)NC(=O)[C@H](CCC(=O)O)NC(=O)CN)C(=O)N[C@@H](CCC(N)=O)C(=O)NCC(=O)N1CCC[C@H]1C(=O)N1CCC[C@H]1C(=O)NCC(=O)N1CCC[C@H]1C(=O)N[C@@H](C)C(=O)NCC(=O)N1CCC[C@H]1C(=O)N[C@@H](CCCNC(=N)N)C(=O)NCC(=O)N[C@@H](C)C(=O)N[C@@H](CC(N)=O)C(=O)NCC(=O)N[C@@H](C)C(=O)N1CCC[C@H]1C(=O)NCC(=O)N[C@@H](CC(N)=O)C(=O)N[C@@H](CC(=O)O)C(=O)NCC(=O)N[C@@H](C)C(=O)N[C@@H](CCCCN)C(=O)NCC(=O)N[C@@H](CC(=O)O)C(=O)N[C@@H](C)C(=O)NCC(=O)N[C@@H](C)C(=O)N1CCC[C@H]1C(=O)NCC(=O)N[C@@H](C)C(=O)N1CCC[C@H]1C(=O)O [compound 27] (H-GERGVQGPPGPAGPRGANGAPGNDGAKGDAGAPGAP-OH; N-terminus and C-terminus assumed) | 2186.24
4 | CSCC[C@H](NC(=O)[C@H](CCC(N)=O)NC(=O)CNC(=O)[C@@H]1CCCN1C(=O)[C@H](C)NC(=O)CNC(=O)[C@H](CC(N)=O)NC(=O)[C@H](CCC(=O)O)NC(=O)CN)C(=O)NCC(=O)N1CCC[C@H]1C(=O)N[C@@H](CCCNC(=N)N)C(=O)NCC(=O)N[C@@H](CC(C)C)C(=O)N1CCC[C@H]1C(=O)NCC(=O)N[C@@H](CCC(=O)O)C(=O)N[C@@H](CCCNC(=N)N)C(=O)NCC(=O)N[C@@H](CCCNC(=N)N)C(=O)N1CCC[C@H]1C(=O)NCC(=O)N[C@@H](C)C(=O)N1CCC[C@H]1C(=O)NCC(=O)N1CCC[C@H]1C(=O)N[C@@H](C)C(=O)NCC(=O)N[C@@H](C)C(=O)N[C@@H](CCCNC(=N)N)C(=O)NCC(=O)N[C@@H](CC(N)=O)C(=O)N[C@@H](CC(=O)O)C(=O)NCC(=O)N[C@@H](C)C(=O)N[C@H](C(=O)O)[C@@H](C)O [compound 5] (H-GENGAPGQMGPRGLPGERGRPGAPGPAGARGNDGAT-OH; N-terminus and C-terminus assumed) | 2123.45

Other lines, results leading:

Row | 24h penetration amount [µg] | Structure (SMILES)
5 | 2013.46 | CC(C)C[C@H](NC(=O)CNC(=O)[C@@H](NC(=O)[C@@H]1CCCN1C(=O)CNC(=O)[C@@H]1CCCN1C(=O)[C@H](CCC(=O)O)NC(=O)CNC(=O)[C@H](CCCNC(=N)N)NC(=O)[C@H](C)NC(=O)CN)[C@@H](C)O)C(=O)N1CCC[C@H]1C(=O)NCC(=O)N1CCC[C@H]1C(=O)N1CCC[C@H]1C(=O)NCC(=O)N[C@@H](CCC(=O)O)C(=O)N[C@@H](CCCNC(=N)N)C(=O)NCC(=O)NCC(=O)N1CCC[C@H]1C(=O)NCC(=O)N[C@@H](CO)C(=O)N[C@@H](CCCNC(=N)N)C(=O)NCC(=O)N[C@@H](Cc1ccccc1)C(=O)N1CCC[C@H]1C(=O)NCC(=O)N[C@@H](C)C(=O)N[C@@H](CC(=O)O)C(=O)NCC(=O)N[C@H](C(=O)N[C@@H](C)C(=O)NCC(=O)N1CCC[C@H]1C(=O)N[C@@H](CCCCN)C(=O)O)C(C)C [compound 8] (H-GARGEPGPTGLPGPPGERGGPGSRGFPGADGVAGPK-OH; N-terminus and C-terminus assumed)
6 | 2613.34 | CC(C)[C@H](NC(=O)[C@H](C)NC(=O)CNC(=O)[C@@H]1CCCN1C(=O)[C@@H]1CCCN1C(=O)CNC(=O)[C@@H]1CCCN1C(=O)[C@@H](NC(=O)CNC(=O)[C@H](CCCNC(=N)N)NC(=O)[C@H](CCC(=O)O)NC(=O)CN)C(C)C)C(=O)NCC(=O)N1CCC[C@H]1C(=O)N[C@@H](C)C(=O)NCC(=O)N[C@@H](CCCCN)C(=O)N[C@@H](CC(=O)O)C(=O)NCC(=O)N[C@@H](CCC(=O)O)C(=O)N[C@@H](C)C(=O)NCC(=O)N[C@@H](C)C(=O)N[C@@H](CCC(N)=O)C(=O)NCC(=O)N1CCC[C@H]1C(=O)N1CCC[C@H]1C(=O)NCC(=O)N1CCC[C@H]1C(=O)N[C@@H](C)C(=O)NCC(=O)N1CCC[C@H]1C(=O)N[C@@H](C)C(=O)NCC(=O)N[C@@H](CCC(=O)O)C(=O)N[C@@H](CCCNC(=N)N)C(=O)O [compound 12] (H-GERGVPGPPGAVGPAGKDGEAGAQGPPGPAGPAGER-OH; N-terminus and C-terminus assumed)
7 | 2045.62 | CC(C)C[C@H](NC(=O)[C@H](CC(=O)O)NC(=O)CNC(=O)[C@@H]1CCCN1C(=O)[C@@H](NC(=O)CN)C(C)C)C(=O)NCC(=O)N[C@@H](C)C(=O)N1CCC[C@H]1C(=O)NCC(=O)N1CCC[C@H]1C(=O)N[C@@H](CO)C(=O)NCC(=O)N[C@@H](C)C(=O)N[C@@H](CCCNC(=N)N)C(=O)NCC(=O)N[C@@H](CCC(=O)O)C(=O)N[C@@H](CCCNC(=N)N)C(=O)NCC(=O)N[C@@H](Cc1ccccc1)C(=O)N1CCC[C@H]1C(=O)NCC(=O)N[C@@H](CCC(=O)O)C(=O)N[C@@H](CCCNC(=N)N)C(=O)NCC(=O)N[C@H](C(=O)N[C@@H](CCC(N)=O)C(=O)NCC(=O)N1CCC[C@H]1C(=O)N1CCC[C@H]1C(=O)NCC(=O)N1CCC[C@H]1C(=O)N[C@@H](C)C(=O)NCC(=O)N1CCC[C@H]1C(=O)N[C@@H](CCCNC(=N)N)C(=O)O)C(C)C [compound 14] (H-GVPGDLGAPGPSGARGERGFPGERGVQGPPGPAGPR-OH; N-terminus and C-terminus assumed)
